Reference: patent US9067934B2, “Bicyclic pyridinones” (Pfizer Inc., priority 2011, dated 2015)
Counter-ions that a name gives are not always drawn.

Test system: production of amyloid beta protein Aβ(1-42) (γ-secretase) in human WT-APP overexpressing CHO cells
Assay: Cell-Based γ-Secretase Assay with ELISA Readout
Details: human WT-APP overexpressing CHO cells, ~24 hours at 37° C., Aβ(1-42) ELISA; footnotes: a = geometric mean of >15 determinations, b = single determination, c = geometric mean of 7-15 determinations; read-out: Aβ 42B IC50 (Geometric Mean of 2-6 Determinations)
How it was run: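 Human WT-APP-overexpressing CHO cells were pre-cultured 24 h at 37° C, then exposed to compounds (eleven-point half-log series, 1% final DMSO) for ~24 h. Aβ(1-42) in conditioned media was captured with Aβ(1-42)-specific antibody and detected with Eu-labeled 6e10 by DELFIA TRF. IC50 by nonlinear regression against min/max inhibition controls.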

Cc1cn(-c2ccc3n(c2=O)CCN(CCOc2cccc(Cl)c2Cl)C3=O)cn1 [Example 33, 2-[2-(2,3-dichlorophenoxy)ethyl]-7-(4-methyl-1H-imidazol-1-yl)-3,4-dihydro-2H-pyrido[1,2-a]pyrazine-1,6-dione, trifluoroacetate salt]
IC50: 194 nM

Cc1cn(-c2ccc3n(c2=O)CCN(CCOc2cccc4c2cc(C(F)(F)F)n4C)C3=O)cn1 [Example 102, 7-(4-methyl-1H-imidazol-1-yl)-2-(2-{[1-methyl-2-(trifluoromethyl)-1H-indol-4-yl]oxy}ethyl)-3,4-dihydro-2H-pyrido[1,2-a]pyrazine-1,6-dione]
IC50: 33.7 nM

Cc1cn(-c2ccc3n(c2=O)CCN(CCOc2ccccc2-c2sncc2C)C3=O)cn1 [Example 37, 7-(4-methyl-1H-imidazol-1-yl)-2-{2-[2-(4-methylisothiazol-5-yl)phenoxy]ethyl}-3,4-dihydro-2H-pyrido[1,2-a]pyrazine-1,6-dione, trifluoroacetate salt]
IC50: 219 nM

Cc1cn(-c2ccc3n(c2=O)CCN(CCOc2cccc4c(Cl)ccc(Cl)c24)C3=O)cn1 [Example 46, 2-{2-[(5,8-dichloro-1-naphthyl)oxy]ethyl}-7-(4-methyl-1H-imidazol-1-yl)-3,4-dihydro-2H-pyrido[1,2-a]pyrazine-1,6-dione, trifluoroacetate salt]
IC50: 9.38 nM

Cc1cn(-c2ccc3n(c2=O)CCN(CCOc2ccc(F)c4sc(C(F)(F)F)nc24)C3=O)cn1 [Example 80, 2-(2-{[7-fluoro-2-(trifluoromethyl)-1,3-benzothiazol-4-yl]oxy}ethyl)-7-(4-methyl-1H-imidazol-1-yl)-3,4-dihydro-2H-pyrido[1,2-a]pyrazine-1,6-dione]
IC50: 152 nM

Cc1cn(-c2ccc3n(c2=O)CCN(CCOc2cccc4nc(C(F)(F)F)sc24)C3=O)cn1 [Example 97, 7-(4-methyl-1H-imidazol-1-yl)-2-(2-{[2-(trifluoromethyl)-1,3-benzothiazol-7-yl]oxy}ethyl)-3,4-dihydro-2H-pyrido[1,2-a]pyrazine-1,6-dione, trifluoroacetate salt]
IC50: 21.3 nM

Cc1cn(-c2ccc3n(c2=O)CCN(CCOc2cccc(-n4ccc(C(F)(F)F)n4)c2)C3=O)cn1 [Example 81, 7-(4-methyl-1H-imidazol-1-yl)-2-(2-{3-[3-(trifluoromethyl)-1H-pyrazol-1-yl]phenoxy}ethyl)-3,4-dihydro-2H-pyrido[1,2-a]pyrazine-1,6-dione, trifluoroacetate salt]
IC50: 384 nM

O=C1c2ccc(-n3cnc(Cl)c3)c(=O)n2CCN1CCOc1ccc(Cl)cc1C(F)(F)F [Example 113, 7-(4-chloro-1H-imidazol-1-yl)-2-{2-[4-chloro-2-(trifluoromethyl)phenoxy]ethyl}-3,4-dihydro-2H-pyrido[1,2-a]pyrazine-1,6-dione]
IC50: 292 nM

COc1ccc2c(OCCN3CCn4c(ccc(-n5cnc(C)c5)c4=O)C3=O)cccc2c1 [Example 78, 2-{2-[(6-methoxy-1-naphthyl)oxy]ethyl}-7-(4-methyl-1H-imidazol-1-yl)-3,4-dihydro-2H-pyrido[1,2-a]pyrazine-1,6-dione]
IC50: 87.5 nM

Cc1cn(-c2ccc3n(c2=O)CCN(CCOc2ccccc2-c2csc(C(F)(F)F)n2)C3=O)cn1 [Example 40, 7-(4-methyl-1H-imidazol-1-yl)-2-(2-{2-[2-(trifluoromethyl)-1,3-thiazol-4-yl]phenoxy}ethyl)-3,4-dihydro-2H-pyrido[1,2-a]pyrazine-1,6-dione]
IC50: 19.6 nM

Cc1cn(-c2ccc3n(c2=O)CCN(CCOc2ccc(Cl)c(C(F)(F)F)c2)C3=O)cn1 [Example 12, 2-{2-[4-chloro-3-(trifluoromethyl)phenoxy]ethyl}-7-(4-methyl-1H-imidazol-1-yl)-3,4-dihydro-2H-pyrido[1,2-a]pyrazine-1,6-dione]
IC50: 196 nM

Cc1cn(-c2ccc3n(c2=O)CCN(CCOc2ccccc2-c2ccc(Cl)cc2)C3=O)cn1 [Example 94, 2-{2-[(4′-chlorobiphenyl-2-yl)oxy]ethyl}-7-(4-methyl-1H-imidazol-1-yl)-3,4-dihydro-2H-pyrido[1,2-a]pyrazine-1,6-dione, formate salt]
IC50: 108 nM

Cc1cn(-c2ccc3n(c2=O)CCN(CCOc2nccc4oc5ccccc5c24)C3=O)cn1 [Example 74, 2-[2-([1]benzofuro[3,2-c]pyridin-1-yloxy)ethyl]-7-(4-methyl-1H-imidazol-1-yl)-3,4-dihydro-2H-pyrido[1,2-a]pyrazine-1,6-dione]
IC50: 38.5 nM

Cc1cn(-c2ccc3n(c2=O)CCN(CCOc2ccc(F)c4occc24)C3=O)cn1 [Example 11, 2-{2-[(7-fluoro-1-benzofuran-4-yl)oxy]ethyl}-7-(4-methyl-1H-imidazol-1-yl)-3,4-dihydro-2H-pyrido[1,2-a]pyrazine-1,6-dione]
IC50: 536 nM

Cc1cn(-c2ccc3n(c2=O)CCN(CCOc2ccccc2OC(F)(F)F)C3=O)cn1 [Example 15, 7-(4-methyl-1H-imidazol-1-yl)-2-{2-[2-(trifluoromethoxy)phenoxy]ethyl}-3,4-dihydro-2H-pyrido[1,2-a]pyrazine-1,6-dione]
IC50: 275 nM

Cc1cn(-c2ccc3n(c2=O)CCN(CCOc2ccc(C(F)(F)F)cc2C(F)(F)F)C3=O)cn1 [Example 29, 2-{2-[2,4-bis(trifluoromethyl)phenoxy]ethyl}-7-(4-methyl-1H-imidazol-1-yl)-3,4-dihydro-2H-pyrido[1,2-a]pyrazine-1,6-dione]
IC50: 154 nM

Cc1cc(-c2ccc3n(c2=O)CCN(CCOc2cccc4ccc(F)cc24)C3=O)ccn1 [Example 115, 2-{2-[(7-fluoronaphthalen-1-yl)oxy]ethyl}-7-(2-methylpyridin-4-yl)-3,4-dihydro-2H-pyrido[1,2-a]pyrazine-1,6-dione]
IC50: 489 nM

CCC(COc1ccc(F)cc1C(F)(F)F)N1CCn2c(ccc(-n3cnc(C)c3)c2=O)C1=O (centres unmarked) [Example 103, 2-{1-[4-fluoro-2-(trifluoromethyl)phenoxy]butan-2-yl}-7-(4-methyl-1H-imidazol-1-yl)-3,4-dihydro-2H-pyrido[1,2-a]pyrazine-1,6-dione]
IC50: 596 nM

Cc1cn(-c2ccc3n(c2=O)CCN(CCOc2ccccc2-c2ccc(F)cc2)C3=O)cn1 [Example 89, 2-{2-[(4′-fluorobiphenyl-2-yl)oxy]ethyl}-7-(4-methyl-1H-imidazol-1-yl)-3,4-dihydro-2H-pyrido[1,2-a]pyrazine-1,6-dione, formate salt]
IC50: 101 nM

Cc1cn(-c2ccc3n(c2=O)CCN(CCOc2ccc(C(F)(F)F)nc2C(F)(F)F)C3=O)cn1 [Example 31, 2-(2-{[2,6-bis(trifluoromethyl)pyridin-3-yl]oxy}ethyl)-7-(4-methyl-1H-imidazol-1-yl)-3,4-dihydro-2H-pyrido[1,2-a]pyrazine-1,6-dione]
IC50: 96.8 nM

Cc1cn(-c2ccc3n(c2=O)CCN(CCOc2cc(C(F)(F)F)nc4c(C)ccc(Cl)c24)C3=O)cn1 [Example 51, 2-(2-{[5-chloro-8-methyl-2-(trifluoromethyl)quinolin-4-yl]oxy}ethyl)-7-(4-methyl-1H-imidazol-1-yl)-3,4-dihydro-2H-pyrido[1,2-a]pyrazine-1,6-dione]
IC50: 20 nM

Cc1cn(-c2ccc3n(c2=O)CCN([C@@H](C)COc2ccc(Cl)cc2C(C)(C)C(F)(F)F)C3=O)cn1 [Example 117, 2-{(2S)-1-[4-Chloro-2-(1,1,1-trifluoro-2-methylpropan-2-yl)phenoxy]propan-2-yl}-7-(4-methyl-1H-imidazol-1-yl)-3,4-dihydro-2H-pyrido[1,2-a]pyrazine-1,6-dione]
IC50: 3.54 nM

Cc1cn(-c2ccc3n(c2=O)CCN(CCOc2ccc(Cl)cc2-c2cc(C(F)(F)F)[nH]n2)C3=O)cn1 [Example 59, 2-(2-{4-chloro-2-[5-(trifluoromethyl)-1H-pyrazol-3-yl]phenoxy}ethyl)-7-(4-methyl-1H-imidazol-1-yl)-3,4-dihydro-2H-pyrido[1,2-a]pyrazine-1,6-dione]
IC50: 530 nM

Cc1cn(-c2ccc3n(c2=O)CCN(CCOc2cccc4c2c2ccccc2n4C)C3=O)cn1 [Example 71, 2-{2-[(9-methyl-9H-carbazol-4-yl)oxy]ethyl}-7-(4-methyl-1H-imidazol-1-yl)-3,4-dihydro-2H-pyrido[1,2-a]pyrazine-1,6-dione, trifluoroacetate salt]
IC50: 4.22 nM

Cc1cn(-c2ccc3n(c2=O)CCN(CCOc2cccc(C(F)(F)F)c2Cl)C3=O)cn1 [Example 20, 2-{2-[2-chloro-3-(trifluoromethyl)phenoxy]ethyl}-7-(4-methyl-1H-imidazol-1-yl)-3,4-dihydro-2H-pyrido[1,2-a]pyrazine-1,6-dione]
IC50: 157 nM

Cc1cn(-c2ccc3n(c2=O)CCN([C@@H](C)COc2ccc(Cl)cc2S(F)(F)(F)(F)F)C3=O)cn1 [Example 119, 2-{(2S)-1-[4-Chloro-2-(pentafluoro-λ^6-sulfanyl)phenoxy]propan-2-yl}-7-(4-methyl-1H-imidazol-1-yl)-3,4-dihydro-2H-pyrido[1,2-a]pyrazine-1,6-dione]
IC50: 7.49 nM

Cc1cn(-c2ccc3n(c2=O)CCN(CCOc2ccnc4ccc(C(F)(F)F)cc24)C3=O)cn1 [Example 69, 7-(4-methyl-1H-imidazol-1-yl)-2-(2-{[6-(trtfluoromethyl)quinolin-4-yl]oxy}ethyl)-3,4-dihydro-2H-pyrido[1,2-a]pyrazine-1,6-dione]
IC50: 58.3 nM

Cc1cn(-c2ccc3n(c2=O)CCN(CCOc2ccccc2-c2cc(C)ns2)C3=O)cn1 [Example 24, 7-(4-methyl-1H-imidazol-1-yl)-2-{2-[2-(3-methylisothiazol-5-yl)phenoxy]ethyl}-3,4-dihydro-2H-pyrido[1,2-a]pyrazine-1,6-dione]
IC50: 104 nM

Cc1cn(-c2ccc3n(c2=O)CCN(CCOc2cccc4c2CC(F)(F)C4)C3=O)cn1 [Example 108, 2-{2-[(2,2-difluoro-2,3-dihydro-1H-inden-4-yl)oxy]ethyl}-7-(4-methyl-1H-imidazol-1-yl)-3,4-dihydro-2H-pyrido[1,2-a]pyrazine-1,6-dione]
IC50: 46.8 nM
